Measured values as given in article PMC12458685, “Thwarting Isomerization through Rigidity: A Promising HBED Derivative for the Chelation of Gallium-68” (Inorganic Chemistry, 2025).
Read-outs that look alike come from different tables or passages of the source.

Tests used:
[1] = parameters: method as in number not given; settings: ref number not given, cited from earlier work; for pGa^3+: under the same conditions (pH 7.4, C L = 10 μM, C Ga = 1 μM)
[2] = Thermodynamic stability of Ga^3+-HBCD (UV–vis and 1H NMR in-batch titrations; pGa^3+ calculation); type: physicochemical; settings: for pGa^3+ (−log[Ga^3+]free): calculated at pH 7.4, C L = 10 μM and C Ga = 1 μM
Procedure: The thermodynamic stability of Ga^3+-HBCD was evaluated by UV–vis and ^1H NMR spectroscopies. Due to the slow complexation kinetics observed at highly acidic pH values, in-batch titrations were conducted, and heating was applied to speed up the attainment of equilibrium under these conditions. Representative pH-dependent ^1H NMR and UV–vis spectra are reported in Figures S12 and S13, respectively. The overall stability constants (log β) of Ga^3+-HBCD are provided in Table while the corresponding distribution diagram is shown in Figure in comparison with HBED.
To compare the chelating abilities of HBCD and HBED, the pGa^3+ values (pGa^3+ = −log[Ga^3+]free) were calculated under physiological conditions (pH = 7.4, C L = 10 μM and C Ga = 1 μM). This parameter accounts for both ligand basicity and metal-ion hydrolysis, with higher pGa^3+ values indicating greater complex stability under the given conditions.
(§1) UV–vis pH-spectrophotometric titrations were conducted using the in-cell method for the free HBCD and the out-of-cell method for the Ga^3+-HBCD mixture at T = 25 °C and I = 0.15 M NaCl. In the latter case, stock solutions of HBCD and Ga^3+ were combined in separate vials at 1:1 metal-to-ligand ratio (C Ga = C L = 20–50 μM). Small volumes (μL) of HCl and/or NaOH were used to adjust the pH. pH measurements were performed using a calibrated pH meter (Mettler-Toledo). The vials were sealed and heated to T = 80 °C to ensure complete complexation, then cooled to ambient temperature. The electronic spectra were recorded, and the equilibrium was considered to be reached when no further changes in either the pH or the electronic spectra were observed.
(§2) ^1H NMR spectra of free HBCD or Ga^3+-HBCD mixtures (C L = C Ga = 1 mM) were recorded at T = 25 °C and I = 0.15 M NaCl, in D2O, at different pH. The pH was adjusted following the procedure used in the UV–vis experiments. To account for isotopic effects, 0.41 log units were added to the measured pH values. Under highly acidic conditions, the pH was calculated from the HCl concentration using the formula pH = −log[C(H^+)]. […] Prolonged heating was applied to accelerate the complexation reaction. The thermodynamic data were elaborated with HypSpec, HypNMR or as described in previous publications. , Hydrolysis constants and solubility products of Ga^3+ in aqueous ionic media were taken from ref .

[3] = Acidity constants of HBCD by UV–vis pH-spectrophotometric titration; type: physicochemical; settings: T = 25 °C, I = 0.15 M NaCl
Procedure: As the pH increases, the intensity of the band at 275 nm decreases, while two new bands emerge at 241 and 298 nm, with their absorbance progressively increasing. […] These pH-dependent changes in the electronic spectra allowed the determination of the acidity constants (pK a) of HBCD, which are summarized in Table .
as §1

[4] = Stability of HBCD aqueous stock solution (NMR, ESI-MS, UV–vis); type: physicochemical; settings: room temperature, up to one month
Procedure: HBCD stock solutions were prepared by dissolving a weighed amount of ligand directly in Milli-Q water to achieve a concentration of approximately 1 mM. The solubility of HBCD in water depends on pH: minimal values occur at acidic pH, where the noncharged form predominates. To enhance solubility, small amount of NaOH were added, and the solution was sonicated for 15 min. The stability of HBCD at room temperature was confirmed by NMR, ESI-MS and UV–vis measurements conducted over the course of up to one month following solution preparation.

[5] = Formation kinetics of Ga^3+-HBCD (1H NMR and UV–vis); type: physicochemical
Procedure: Before the thermodynamic investigation, the formation kinetics of the Ga^3+-HBCD complexes were qualitatively assessed using ^1H NMR and UV–vis spectroscopies at different pH and concentrations to determine the time needed to reach equilibrium. Understanding the equilibration conditions is essential for obtaining accurate thermodynamic data and for gaining an initial insight into the binding capacity of the new chelator.
The formation kinetics of the Ga^3+-HBCD complexes was evaluated at room temperature using ^1H NMR and UV–vis spectroscopies. Equimolar amounts of Ga^3+ and HBCD solutions (final concentrations: 1 mM for ^1H NMR, 50 μM for UV–vis) in buffered media (e.g., pH 2 HCl 10^–2 M, pH 4.5 acetic/acetate buffer). The complexation reaction was tracked by monitoring the increase in peaks characteristic of Ga^3+-ligand complex formation over time.

[6] = Acidity constants of HBCD by pH-dependent 1H NMR titration; type: physicochemical; settings: T = 25 °C, I = 0.15 M NaCl
Source text: The assignment of the other four protonation constants (pK a,3, pK a,4, pK a,5 and pK a,6) is extremely challenging. […] According to NMR data of HBCD, pK a,3 can reasonably be assigned to one of the tertiary ammine. Once this dissociation occurs, the nitrogen atom can form a hydrogen bond with the phenolic group or with the other amine group. The next dissociation (pK a,4) can be attributed to the other phenolic moiety that can be then involved in the formation of the hydrogen bond with the protonated ammine. The last two dissociations can tentatively be attributed to the second phenolic group (pK a,5) and the tertiary amine (pK a,6).
as §2

[7] = parameters: method as in number not given; settings: I = 0.10 M KCl, T = 25 °C; literature data, ref number not given; cited from earlier work
[8] = parameters: method as in number not given; settings: for in vivo imaging; ref number not given; cited from earlier work

## O=C(O)CN1CCN(CC(=O)O)CCN(CC(=O)O)CCN(CC(=O)O)CC1 [DOTA, 1,4,7,10-tetraazacyclododecane-1,4,7,10-tetraacetic acid]
[1]
  pGa^3+: 18.5

## O=C(O)CN(Cc1ccccc1O)[C@@H]1CCCC[C@H]1N(CC(=O)O)Cc1ccccc1O [HBCD, N,N′-di(2-hydroxybenzyl)-(1,2-cyclohexanediamine)-N,N′-diacetic acid]
[2]; T = 25 °C, I = 0.15 M NaCl
  log β, Ga^3+ + H^+ + L^4– ⇌ [GaHL]: 41.2 ± 0.1
  log β, Ga^3+ + L^4– ⇌ [GaL]^−: 39.2 ± 0.1
[2]
  pGa^3+ (−log[Ga^3+]free): 27.0
[3]; UV–vis
  pK a,3 (H4L ⇌ H^+ + H3L^–): 5.20 ± 0.06
  pK a,4 (H3L^– ⇌ H^+ + H2L^2–): 9.42 ± 0.04
  pK a,5 (H2L^2– ⇌ H^+ + HL^3–): 11.94 ± 0.03
  pK a,6 (HL^3– ⇌ H^+ + L^4–): 13.2 ± 0.2
[3]; calculated from UV–vis data
  average value of pK a,1 and pK a,2: d An average value of pK a,1 and pK a,2 equal to 1.7 ± 0.2 was calculated from UV–vis data.
[4]
  stability of HBCD in solution: confirmed
[5]; pH ∼ 2, room temperature, after 24 h, 1H NMR
  Ga^3+ complex formation: no complex formation was observed
[5]; pH ∼ 4.5, 50 μM, UV–vis
  time to reach completion of Ga^3+ complexation: approximately 1 h
[5]; pH ∼ 4.5, mM metal and ligand concentrations, 1H NMR
  Ga^3+ complexation rate: nearly instantaneous
[6]
  pK a,1 (H6L^2+ ⇌ H^+ + H5L^+): 1.1 ± 0.2
  pK a,2 (H5L^+ ⇌ H^+ + H4L): 3.1 ± 0.3
  pK a,3 (H4L ⇌ H^+ + H3L^–): 4.9 ± 0.4
  pK a,4 (H3L^– ⇌ H^+ + H2L^2–): 9.7 ± 0.3
  pK a,5 (H2L^2– ⇌ H^+ + HL^3–): 12.2 ± 0.1
  pK a,6 (HL^3– ⇌ H^+ + L^4–): 13.5 ± 0.2

## O=C(O)CN(CCN(CC(=O)O)Cc1ccccc1O)Cc1ccccc1O [HBED, N,N′-di(2-hydroxybenzyl)ethylenediamine-N,N′-diacetic acid]
[7]
  pK a,2 (H5L^+ ⇌ H^+ + H4L): 2.24
  pK a,3 (H4L ⇌ H^+ + H3L^–): 4.40
  pK a,4 (H3L^– ⇌ H^+ + H2L^2–): 8.34
  pK a,5 (H2L^2– ⇌ H^+ + HL^3–): 11.03
  pK a,6 (HL^3– ⇌ H^+ + L^4–): 12.64
[2]
  pGa^3+ (−log[Ga^3+]free): 29.6
[1]; literature data
  log β, Ga^3+ + H^+ + L^4– ⇌ [GaHL]: 40.81
  log β, Ga^3+ + L^4– ⇌ [GaL]^−: 38.51

## O=C(O)CN(Cc1cccc(C(=O)O)n1)Cc1cccc(C(=O)O)n1 [dpaa]
[8]
  serum stability of the [^68Ga]Ga^3+ complex: poor

## transferrin: iron-transporting protein, one of the primary in vivo competitors for Ga^3+
[1]
  pGa^3+: 20.3
